Test results as given in PMC9747239, “State-selective modulation of heterotrimeric Gαs signaling with macrocyclic peptides” (Cell, 2022).
Where a SMILES comes first, the peptide text is derived from it. Bridges are numbered along the chain shown (N, C = ends). Where no end group is shown, it is not given here. [ ]: non-standard residue; d: D form. The star is where a group is joined. NH(CH2CH2O)2(CH2)6Cl = ClCCCCCCOCCOCCN*

Columns and labels:
HeLa cells = experiment: Chloroalkane penetration assay (CAPA); type: cell-based, human; settings: HeLa cells expressing HaloTag, 19.5 h incubation
Procedure: The cell lines used for CAPA were HeLa cell lines, generated by Chenoweth and co-workers, that stably express HaloTag exclusively in the cytosol ([Peraro et al., 2018]). Cells were seeded in a 96-well plate the day before the experiment at a density of 4 × 10^4 cells per well. The day of the experiment the media was aspirated, and 100 μL of cyclic peptide dilutions in DMEM were added to the cells. Plate was incubated for 19.5 h at 37°C with 5% CO2. The contents of the wells were aspirated off, and wells were washed using fresh Opti-MEM for 15 min. The wash was aspirated off, and the cells were chased using 5 μM ct-TAMRA for 15 min, except for the No-ct-TAMRA control wells, which were incubated with Opti-MEM alone. The contents of the wells were aspirated and washed with fresh Opti-MEM for 30 min. After aspiration, cells were rinsed once with PBS (PBS). The cells were then trypsinized, quenched with DMEM, resuspended in PBS, and analyzed using a benchtop flow cytometer (CytoFLEX, Beckman). Final [cyclic peptide]: 0, 0.034, 0.10, 0.31, 0.93, 2.78, 8.33, 25 μM.

[1] = target: T1, Biotinylated Avi-Gαs (WT), residues 7-380 of the short isoform of human Gαs (human, biotin on the Avi tag); experiment: BLI; biotinylated Gαs loaded with GDP immobilised on streptavidin biosensors (2-3 nm), cyclic peptide as analyte (4.12-1000 nM), association 120 s, dissociation 120 s, 25 °C, 10 mM HEPES pH 7.4, 150 mM NaCl, 1 mM MgCl2, 0.05% Tween 20, 0.1% DMSO, 0.2 mM GDP; double reference subtraction, 1:1 binding model; settings: both partners purified
T1 construct: Gαs (GNAS), human, short isoform (380 residues), residues 7-380; Loaded with GppNHp (GNP) or GDP as the assay says; also called Biotinylated Gαs/GNP; Biotinylated Gαs/GDP; source: E. coli BL21(DE3), purified (TALON, Source-15Q, gel filtration), biotinylated with BirA; not shown: Avi tag, N-terminal, kept; His6, N-terminal, cleaved
T1 chain: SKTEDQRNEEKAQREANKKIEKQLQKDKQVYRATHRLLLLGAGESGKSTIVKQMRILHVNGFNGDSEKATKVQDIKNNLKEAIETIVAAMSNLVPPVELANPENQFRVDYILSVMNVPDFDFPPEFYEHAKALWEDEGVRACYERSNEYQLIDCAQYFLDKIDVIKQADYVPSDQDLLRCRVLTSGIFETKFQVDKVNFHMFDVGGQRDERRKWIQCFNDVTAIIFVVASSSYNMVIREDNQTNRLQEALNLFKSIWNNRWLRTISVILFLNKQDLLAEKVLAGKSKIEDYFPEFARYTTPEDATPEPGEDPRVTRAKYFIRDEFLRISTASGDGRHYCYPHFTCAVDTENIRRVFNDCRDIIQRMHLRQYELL

Molecule: CC[C@H](C)[C@@H]1NC(=O)[C@H](CC(C)C)NC(=O)[C@@H](Cc2ccc(O)cc2)NC(=O)CSC[C@@H](C(=O)NCC(=O)NCCOCCOCCCCCCCl)NC(=O)[C@@H]2CCCN2C(=O)[C@H](CC(C)C)NC(=O)[C@H](CC(N)=O)NC(=O)[C@H](CC(C)C)NC(=O)[C@H](C)NC(=O)[C@H](Cc2c[nH]c3ccccc23)NC(=O)[C@H](CCC(N)=O)NC(=O)[C@H](CCCNC(=N)N)NC(=O)[C@H](Cc2ccccc2)NC(=O)[C@H]([C@@H](C)O)NC1=O [ct-GD20-F10L] ({CH2CO}-[dY]LITFRQWALNLPCG-{NH(CH2CH2O)2(CH2)6Cl}; thioether N-14)
- cell penetration (CAPA) (HeLa cells): further improved cell penetration

Molecule: CC[C@H](C)[C@@H]1NC(=O)[C@H](CC(C)C)NC(=O)[C@@H](Cc2ccc(O)cc2)NC(=O)CSC[C@@H](C(=O)NCC(=O)NCCOCCOCCCCCCCl)NC(=O)[C@@H]2CCCN2C(=O)[C@H](CC(C)C)NC(=O)[C@H](CC(N)=O)NC(=O)[C@H](Cc2ccccc2)NC(=O)[C@H](C)NC(=O)[C@H](Cc2c[nH]c3ccccc23)NC(=O)[C@H](CCC(N)=O)NC(=O)[C@H](CCCNC(=N)N)NC(=O)[C@H](Cc2ccccc2)NC(=O)[C@H]([C@@H](C)O)NC1=O [ct-GD20] ({CH2CO}-[dY]LITFRQWAFNLPCG-{NH(CH2CH2O)2(CH2)6Cl}; thioether N-14)
- cell penetration (CAPA) (HeLa cells): cell permeable

Molecule: CC[C@H](C)[C@@H]1NC(=O)[C@H](C)NC(=O)[C@H](Cc2ccc(O)cc2)NC(=O)[C@H](C(C)C)NC(=O)[C@H](CO)NC(=O)[C@H](CCC(N)=O)NC(=O)[C@H](Cc2ccccc2)NC(=O)[C@@H](Cc2ccc(O)cc2)NC(=O)CSC[C@@H](C(=O)NCC(=O)NCCOCCOCCCCCCCl)NC(=O)[C@H](CC(C)C)NC(=O)[C@H]([C@@H](C)O)NC(=O)CNC(=O)[C@H](Cc2c[nH]c3ccccc23)NC1=O [ct-GN13-E3Q] ({CH2CO}-[dY]FQSVYAIWGTLCG-{NH(CH2CH2O)2(CH2)6Cl}; thioether N-13)
- cell penetration (CAPA) (HeLa cells): measurable cell penetration

B1: GD20 (peptide)
peptide: {CH2CO}-[dY]LITFRQWAFNLPCG
modifications: thioether N-14
notes: Selected by RaPID mRNA display; Synthesised on NovaPEG Rink Amide resin, so a C-terminal amide is surmised; source: synthetic peptide (Fmoc solid phase synthesis, cyclised, RP-HPLC)
- koff [1]: 0.00343 s⁻¹
- kon [1]: 109000 M⁻¹ s⁻¹
